In patent US10894798B2, “Substituted dihydropyrrolopyrazole derivative” (UBE INDUSTRIES, LTD., priority 2015, dated 2021):
One block for each molecule: values may come before it.

Tests used:
[1] = tested on: human large intestine cancer cell line (HCT-116) tumor; test: In vivo tumor growth inhibition test for human large intestine cancer cell line by combined use with chemotherapeutic; conditions: alone
[2] = tested on: human large intestine cancer cell line HCT-116; test: In vitro cell growth inhibitory activity against human large intestine cancer line by combined use with chemotherapeutic; assay type: cell-based; conditions: HCT-116, 3 days, single-agent treatment
Experimental: A human large intestine cancer cell line HCT-116 (obtained from DS Pharma Biomedical Co., Ltd.) was cultured in a McCoy's 5A medium (manufactured by Thermo Fisher Scientific, Inc.) containing 10% fetal bovine serum (FBS) (manufactured by Thermo Fisher Scientific, Inc.) and 1% penicillin/streptomycin/amphotericin B (manufactured by Thermo Fisher Scientific, Inc.) and inoculated at 0.5 to 2.0×10^3 cells/well to a 96-well plate. The cells were cultured overnight in a carbon dioxide incubator of 37° C. containing 5% carbon dioxide. The medium was replaced with a fresh medium on the next day, and then, a mixed solution of a DMSO solution of a test compound (IV-361, 5-FU or SN-38) with varying concentrations and a cell culture medium (final DMSO concentration: 0.2%) was added thereto. The concentration of the test compound was 10 nM, the concentration of 5-FU (manufactured by Wako Pure Chemical Industries, Ltd.) was 1000 nM, and the concentration of SN-38 (manufactured by Tocris Bioscience) was adjusted to 1 nM to carry out the test. For a control group, a mixed solution of DMSO and a cell culture medium (final DMSO concentration: 0.2%) was used instead of the DMSO solution of the test compound.
After the addition of the DMSO solution of the test compound, the cells were cultured for 3 days in a carbon dioxide incubator. Then, the absorbance (measurement wavelength: 565 nm) of the medium in each group was measured by using In Vitro Toxicology Assay Kit Sulforhodamine B based (manufactured by Sigma-Aldrich Co. LLC.).
The rate of inhibition of growth (%) was calculated according to the expression given below. Specifically, in the case where the difference between the average absorbance before culture (day 0) and the average absorbance after culture in the test compound-administered group is the same as the difference between the average absorbance before culture (day 0) and the average absorbance after culture in the control group, the rate of inhibition of cell growth is 0%. Rate of inhibition of growth=(1−((Average absorbance of the test compound-administered group after culture)−(Average absorbance of the test compound-administered group on day 0))/((Average absorbance of the control group after culture)−(Average absorbance of the control group on day 0)))×100

[3] = tested on: small-cell lung cancer cell line NCI-H82; test: Various human cancer cell growth inhibition test: NCI-H82; assay type: cell-based; conditions: ATPlite, read-out: GI50 value (concentration necessary for inhibiting 50% of cell growth)
Source text: (§1) A breast cancer cell line BT-549 (obtained from American Type Culture Collection (ATCC)), a uterus cancer cell line C-33A (obtained from ATCC), an ovary cancer cell line PA-1 (obtained from ATCC), a large-cell lung cancer cell line NCI-H460 (obtained from ATCC), a small-cell lung cancer cell line NCI-H82 (obtained from ATCC), a kidney cancer cell line ACHN (obtained from ATCC), a pancreatic cancer cell line BxPC-3 (obtained from ATCC), a malignant melanoma cell line A375 (obtained from ATCC), a throat cancer cell line FaDu (obtained from ATCC), a medulloblastoma cell line Daoy (obtained from ATCC), a cutaneous epithelioid sarcoma cell line VA-ES-BJ (obtained from ATCC), a rhabdomyosarcoma cell line A-204 (obtained from ATCC), a prostate cancer cell line DU145 (obtained from ATCC), a bladder cancer cell line T24 (obtained from ATCC), a lymphoma cell line SR (obtained from ATCC), a neuroblastoma cell line SH-SY5Y (obtained from DS Pharma Biomedical Co., Ltd.), a liver cancer cell line HepG2 (obtained from DS Pharma Biomedical Co., Ltd.), a stomach cancer cell line HGC-27 (obtained from DS Pharma Biomedical Co., Ltd.), and a multiple myeloma cell line NCI-H929 (obtained from DS Pharma Biomedical Co., Ltd.) were used as human cancer cell lines.
(§2) Each cell line was cultured in a cell culture medium recommended by ATCC or DS Pharma Biomedical Co., Ltd. and inoculated at 0.3 to 5.0×10^3 cells/well to a 96-well plate. The cells were cultured overnight in a carbon dioxide incubator of 37° C. containing 5% carbon dioxide. The medium was replaced with a fresh medium on the next day, then replaced with a mixed solution of a DMSO solution of a test compound with varying concentrations and a culture medium (final DMSO concentration: 0.1%), and left standing in a carbon dioxide incubator (day 0). IV-361, IV-379, IV-3, IV-215, IV-299, IV-669, IV-1049, and palbociclib (for comparison) were used as test compounds. For a control group, DMSO was added instead of the DMSO solution of the test compound to a cell culture medium (final DMSO concentration: 0.1%).
(§3) After culture for a predetermined period, the ATP activity of BT-549, C-33A, PA-1, NCI-H460, NCI-H82, ACHN, BxPC-3, A375, FaDu, Daoy, VA-ES-BJ, A-204, DU145, T24, and SR was measured by using ATPlite (manufactured by PerkinElmer, Inc.). The ATP activity of SH-SY5Y, HepG2, HGC-27, and NCI-H929 was measured by using CellTiter-Glo (manufactured by Promega Corp.).
(§4) The rate of inhibition of cell growth (%) was calculated according to the expression given below. Specifically, in the case where the difference between the ATP activity before culture (day 0) and the ATP activity after culture in the test compound-administered group is the same as the difference between the ATP activity before culture (day 0) and the ATP activity after culture in the control group, the rate of inhibition of cell growth is 0%. Rate of inhibition of cell growth=(1−((ATP activity of the test compound-administered group after culture)−(ATP activity of the test compound-administered group on day 0))/((ATP activity of the control group after culture)−(ATP activity of the control group on day 0)))×100
(§5) The concentration of the test compound necessary for inhibiting 50% of cell growth (GI50 value) was calculated by using EXSUS (version 8.1.0, manufactured by CAC Exicare Corp.).

[4] = tested on: large-cell lung cancer cell line NCI-H460; test: Various human cancer cell growth inhibition test: NCI-H460; assay type: cell-based; conditions: ATPlite, read-out: GI50 value (concentration necessary for inhibiting 50% of cell growth)
Source text: as §1, §2, §3, §4, §5

[5] = tested on: malignant melanoma cell line A375; test: Various human cancer cell growth inhibition test: A375; assay type: cell-based; conditions: A-375, ATPlite, read-out: GI50 value (concentration necessary for inhibiting 50% of cell growth)
Source text: as §1, §2, §3, §4, §5

[6] = tested on: uterus cancer cell line C-33A; test: Various human cancer cell growth inhibition test: C-33A; assay type: cell-based; conditions: ATPlite, read-out: GI50 value (concentration necessary for inhibiting 50% of cell growth)
Source text: as §1, §2, §3, §4, §5

lymphoma cell line SR = test: Various human cancer cell growth inhibition test: SR; assay type: cell-based; conditions: ATPlite, read-out: GI50 value (concentration necessary for inhibiting 50% of cell growth)
Source text: as §1, §2, §3, §4, §5

[7] = tested on: human large intestine cancer cell line (HCT-116); test: Human large intestine cancer (HCT-116) cell growth inhibition test; assay type: cell-based; conditions: HCT-116 (row of Table 50), read-out: GI50 value (concentration necessary for inhibiting 50% of cell growth)
Outline: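 HCT-116 cells were seeded at 0.5 to 2.0×10^3 cells/well in McCoy's 5A with 10% FBS and dosed with compound at 0.1% final DMSO after overnight culture. Growth was measured by sulforhodamine B absorbance after 3 days. GI50 was calculated from the inhibition rate at each concentration.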

[8] = tested on: ovary cancer cell line PA-1; test: Various human cancer cell growth inhibition test: PA-1; assay type: cell-based; conditions: ATPlite, read-out: GI50 value (concentration necessary for inhibiting 50% of cell growth)
Source text: as §1, §2, §3, §4, §5

[9] = tested on: breast cancer cell line BT-549; test: Various human cancer cell growth inhibition test: BT-549; assay type: cell-based; conditions: ATPlite, read-out: GI50 value (concentration necessary for inhibiting 50% of cell growth)
Source text: as §1, §2, §3, §4, §5

[10] = tested on: pancreatic cancer cell line BxPC-3; test: Various human cancer cell growth inhibition test: BxPC-3; assay type: cell-based; conditions: ATPlite, read-out: GI50 value (concentration necessary for inhibiting 50% of cell growth)
Source text: as §1, §2, §3, §4, §5

[11] = tested on: kidney cancer cell line ACHN; test: Various human cancer cell growth inhibition test: ACHN; assay type: cell-based; conditions: ATPlite, read-out: GI50 value (concentration necessary for inhibiting 50% of cell growth)
Source text: as §1, §2, §3, §4, §5

[12] = tested on: throat cancer cell line FaDu; test: Various human cancer cell growth inhibition test: FaDu; assay type: cell-based; conditions: ATPlite, read-out: GI50 value (concentration necessary for inhibiting 50% of cell growth)
Source text: as §1, §2, §3, §4, §5

[13] = tested on: rhabdomyosarcoma cell line A-204; test: Various human cancer cell growth inhibition test: A-204; assay type: cell-based; conditions: A204, ATPlite, read-out: GI50 value (concentration necessary for inhibiting 50% of cell growth)
Source text: as §1, §2, §3, §4, §5

Structure (SMILES): O=c1[nH]cc(F)c(=O)[nH]1 [5-FU, 5-Fluorouracil, reference compound]
Rate of suppression of tumor volume ([1]; Table 52, 5-FU 15 mg/kg/day intraperitoneal): 21% | inhibition at 1 µM ([2]; Homo sapiens, 72 h, 5-FU 1000 nM, read-out: Rate of inhibition of growth (%)): 25%

Structure (SMILES): O=C1[O][Pt]2([NH][C@@H]3CCCC[C@H]3[NH]2)[O]C1=O [Oxaliplatin, oxaliplatin, reference compound]
Rate of suppression of tumor volume ([1]; Table 53, oxaliplatin 3 mg/kg/day intraperitoneal): 44%

GI50 [3]: ≥ 1000 nM | GI50 [4]: < 300 nM | GI50 [5]: < 300 nM | GI50 [6]: ≥ 1000 nM | GI50 (lymphoma cell line SR): < 300 nM | GI50 [7]: 300 to 1000 nM | GI50 [8]: < 300 nM | GI50 [9]: ≥ 1000 nM | GI50 [10]: < 300 nM | GI50 [11]: < 300 nM | GI50 [12]: ≥ 1000 nM | GI50 [13]: ≥ 1000 nM
Structure (SMILES): CC(=O)c1c(C)c2cnc(Nc3ccc(N4CCNCC4)cn3)nc2n(C2CCCC2)c1=O [Palbociclib, palbociclib, reference compound]

Structure (SMILES): CCc1c2c(nc3ccc(O)cc13)-c1cc3c(c(=O)n1C2)COC(=O)[C@]3(O)CC [SN-38, reference compound]
Rate of inhibition of growth (%) ([2]; SN-38 1 nM): 12%
